Reference: a melting point compilation (Tetko et al.; mined from patent text by program, amines drawn as free bases though some values may be those of a salt)

Row | melting point [°C] | Structure (SMILES)
1 | 171 to 173 | COC(=O)C(O)=CC(=O)c1cn(Cc2ccc(F)cc2)c(=O)n(Cc2ccc(F)cc2)c1=O
2 | 248 to 250 | O=C(NCc1ccc(Cl)cc1)c1cnc2cc(I)ccc2c1O
3 | 182 to 184 | CCc1nc2c(N)nc3ccccc3c2n1CCOCCNC(=O)N1CCOCC1
4 | 226 to 227 | Cc1ccccc1C(Oc1cc(OCc2cncs2)ccc1C#N)C(=O)O (configuration not stated)
5 | 118 to 120 | COc1ccc(S(=O)(=O)C(CCCc2ccccc2)(CCCc2ccccc2)C(=O)O)cc1
6 | 208 to 209 | O=c1c(-c2ccccc2)c(CSc2ncnc3[nH]cnc23)oc2ccccc12
7 | 270 to 273 | CC1CCc2c3c(cc4ccccc24)C(=O)C(C(=O)O)CN31 (configuration not stated)
8 | 143 to 145 | CC(=O)Oc1ccc(-c2cnc(NC(=S)Cc3ccccc3)c(Cc3ccccc3)n2)cc1
9 | 140 to 141 | O=C(c1ccccc1)N(CCCn1cncn1)C1=Nc2cccc3cccc1c23
10 | 198 to 200 | CC(=O)Nc1ccc(-c2cccc(C3=NC(C)(C)Cc4ccc5c(c43)CC(C)(C)O5)c2)cc1
11 | 138 | CCOC(=O)CC(CCCCNC(=O)c1sc(NC(=N)N)nc1C)c1ccccc1 (racemic)
12 | 253 to 255 | Cc1[nH]cc2c(=O)n(-c3ccc(Cl)cc3)nc-2c1-c1cccc(C(=O)N2CCCC2)c1
13 | 142 to 146 | CC(=O)c1cc2c(Br)cccc2n1S(=O)(=O)c1ccccc1
14 | 178 | CS(=O)(=O)C(=C1CN(C(c2ccccc2)c2ccccc2)C1)c1ccc2ccccc2c1
15 | 122 to 125 | CN(C)CCNC(=O)c1ccc(-c2ccc3nnn(Cc4ccc5ncccc5c4)c3n2)cc1
16 | 128 to 130 | CCCCc1cc2cc(O)ccc2c(Oc2ccc(/C=C/C(=O)O)cc2)c1-c1ccccc1
17 | 248 | Cc1nc(CCc2ccccc2)c2c(c1O)COC2
18 | > 300 | O=c1c2c(-c3ccc(O)cc3)n[nH]c2c2cccnc2n1-c1ccccc1
19 | 181 to 183 | CCOC(=O)COc1cccc(Br)c1CC(=O)O
20 | 139 to 144 | CCOC(=O)c1cnc2cc(C)nn2c1N(C)S(=O)(=O)c1ccc(Oc2ccncc2)cc1
21 | 112 to 114 | COc1ccc(Oc2ccccc2)c(N)c1
22 | 249 to 250 | Clc1nc2ccccc2c2[nH]c3ccccc3c12
23 | 167 to 169 | FC(F)(F)c1cnc2nc1Nc1cccc(c1)/C=C\c1cccc(c1)N2
24 | 177 | O=C(O)COc1ccc(C(=O)c2ccoc2)c2ccccc12
25 | 210 to 211 | CCOCc1nc2c(N)nc3ccccc3c2n1CCC1(O)CC1
26 | 77 to 78.5 | COC(=O)c1ccccc1Sc1cccc(O)c1
27 | 280 to 282 | COc1ccc(OC)c(-c2c(O)c3ccc(Cl)cc3[nH]c2=O)c1
28 | 142 to 143 | COc1ccc(C(=O)c2ccc(OCc3nc(-c4ccccc4)oc3C)cc2)c(OCCC(=O)O)c1
29 | 141 to 142 | CCc1ccccc1-c1nc(-c2cccc(OC)c2)nn1C(=O)Nc1ccc(C)cc1

The next lines start with the compound.

Row | Structure (SMILES) | melting point [°C]
30 | O=C(Nc1nc(-c2ccco2)c(C(=O)C2CCCC2)s1)c1ccncc1 | 168 to 181
31 | CC1(C)CN2C(=O)c3nc[nH]c3N(Cc3ccc(Cl)cc3)C2=N1 | 222 to 223
32 | OC(CCl)CN1CCN(C(c2ccccc2)c2ccccc2)CC1 (configuration not stated) | 114 to 116
33 | CC1(CS)C(=O)N2CCCC(C(=O)O)N2C1=O (configuration not stated) | 209 to 211
34 | O=c1[nH]c(-c2ccccn2)nnc1-c1ccc(Cl)cc1 | 216 to 217
35 | CC(=O)NC(=Cc1cccs1)C1=NC(=Cc2cccs2)C(=O)O1 | 218
36 | CC(C)N(C)c1ncc([N+](=O)[O-])cc1Cl | 56 to 57
37 | O=c1[nH]c(S)ncc1OC1CCCCO1 (configuration not stated) | > 300
38 | COCC#Cc1ccc(CNC(=O)[C@@H](COC)NC(C)=O)cc1 | 141 to 142
39 | CCN1C(=O)CCCc2c1ccc(Nc1ncc(Cl)c(N[C@@H]3CCC[C@H]3NS(C)(=O)=O)n1)c2OC (relative stereo) | 141
40 | CNc1nc(C)c(-c2nc3ccccc3c(=O)n2-c2ccccc2)s1 | 209 to 210
41 | COc1cc(C)c2c(=O)c3c(OC)cccc3oc2c1OC | 158
42 | Cc1ccc2c(C(=O)C(F)(F)F)c[nH]c2c1 | 216 to 218
43 | CCc1noc(NC(C)=O)c1Cl | 113 to 114
44 | CC(=O)c1cc(C)cc(Br)c1O | 81 to 82
45 | CN(C)C(=O)N1CCSC1c1ccccc1OCCN1CCN(c2cccc(F)c2)CC1 (configuration not stated) | 90.5 to 93
46 | O=C(O)C1(C(=O)Nc2cc(Cl)cc(Cl)c2)CCC1 | 159 to 160
47 | O=C(NC(=S)Nc1nc(-c2ccc3c(c2)CCCC3)cs1)c1ccc(Cl)cc1 | 193 to 194
48 | N#Cc1ccc2c(c1)C1(COc3cc4c(cc31)OCCO4)C(=O)N2Cc1ccccn1 (configuration not stated) | 198 to 199
49 | C=CCOc1cc(-c2nn3c(c2Cl)CCCC3)c(F)cc1Cl | 91 to 92
50 | COc1cc(Nc2c(C#N)cnc3sc(-c4ccc(CN5CCOCC5)cc4)cc23)c(Cl)cc1Cl | 106 to 108
51 | O=C(N[C@H]1CN2CCC1CC2)C(Cc1ccccc1)c1ccccc1 (some centres not stated) | 142

Row | Structure (SMILES) | melting point [°C]
52 | c1ccc(C2SC3(CCNCC3)c3ccccc32)cc1 (configuration not stated) | 142 to 144
53 | CCCc1nc(-n2cccc2)c(C(=O)OC)[nH]1 | 135 to 138
54 | COc1cc(-c2cc(O)n(C)n2)cc([N+](=O)[O-])c1OC | 200 to 202
55 | O=C1N(CC2CCCO2)c2ccccc2C12COc1cc3c(cc12)CCCC3 (configuration not stated) | 139 to 141
56 | O=C1CN(C(=O)Cl)C(c2ccccc2)c2cc(Cl)ccc2N1 (configuration not stated) | 181 to 184
57 | COc1ccccc1N1CCN(CCn2c(=O)c3cscc3n(CCC(=O)O)c2=O)CC1 | 186 to 188
58 | Nc1nc(N)c(N)c(OCc2ccccc2)n1 | 130 to 135
59 | CC(=O)C1CCC2C3CCC4CC(O)C(N5CCOC(Cc6ccccc6)C5)CC4(C)C3C(=O)CC12C (configuration not stated) | 160 to 162
60 | COc1ccc(CN2C(=O)C[C@H]2[C@@H]2COC(C)(C)O2)c(OC)c1 | 85 to 86
61 | CNC(=O)N1C[C@@H](Oc2cccc(C(F)(F)F)c2)[C@@H]1C (relative stereo) | 89 to 91
62 | CC(C)(C)OC(=O)NCCNC(=O)c1ncsc1-c1cccc(I)c1 | 111 to 112
63 | CCCCCCCCCCC#CC#CCCCCCCCCC(=O)O | 57 to 58
64 | CONS(=O)(=O)c1ccc(C(F)(F)F)cc1 | 96 to 97
65 | NC(=O)c1c(C(F)(F)F)ccc(Cl)c1F | 123 to 125
66 | Cc1cc(-c2cccc(C3=Nc4cc(N5CCCC5)c(C#N)cc4NC(=O)C3)c2)on1 | 267
67 | Cn1ccnc1Sc1ncc([N+](=O)[O-])n1C | 123 to 124
68 | O=C(c1ccc(Cl)cc1)c1ccc[nH]1 | 106 to 109
69 | CCn1c(=O)c2cccc3c2n(c1=O)-c1cc(C(F)(F)F)ccc1S3 | 150 to 152
70 | O=C(N[C@H]1CC[C@H](CCN2CCN(c3nccc4c3CCO4)CC2)CC1)C1(O)CC1 | 174
71 | Cc1ccc(C(=O)CC(O)C(=O)O)cc1 (configuration not stated) | 92 to 100
72 | C=CCONC(=O)c1nc(-c2ccc(C)cc2)cc(N)c1Cl | 177 to 179
